Earlier results as cited in patent US20240139105A1, “PHARMACEUTICAL COMPOSITION CONTAINING GHRP-6” (CENTRO DE INGENIERÍA GENÉTICA Y BIOTECNOLOGÍA, priority 2021, published 2024).
Where no end group is shown, it is not given here. [ ]: non-standard residue; d: D form.

Key:
humans = details: intravenous route
[1] = test system: Mongolia gerbil (Meriones unguiculatus); details: model of ischemic cerebral infarction, in combination with EGF
pigs = details: model of acute myocardial infarction in pigs

His-Trp-Ala-Trp-Phe-Lys-NH2 (H[dW]AW[dF]K-NH2) [GHRP-6, synthetic peptide, growth hormone secretagogue; the API of all formulations]
Doses referred as safe in humans (humans): ≤ 2 µg/kg
Therapeutic dosage reported [1]: around 600 μg/kg
Therapeutic dosage reported (pigs): 400 µg/kg
